Experimental data reported in patent EP2532242A1, “Use of bispyridiniumalkanes for killing spores” (L'AIR LIQUIDE, SOCIETE ANONYME POUR L'ETUDE ET …, priority 2011, dated 2012).

Legend:
spores = conditions: prior art; cited from earlier work
[1] = system: Bacillus subtilis ATCC 6633; test: Concentration test spores of Bacillus subtilis (method B), with and without lysozyme; assay type: cell-based; conditions: use concentration of 0.001% (Figure 2)
Protocol: • fixed pipettes 1 ml; 500 µl, and 100 µl • sterile glass pipettes 10 ml • sterile spatulas • sterile Schott bottles • water bath 30°C • CSA-agar + TLSH (Tween 80 3%; lecithin 0.3%; saponin 3%, histidine 0.1%) • Bacillus subtilis ATCC 6633 stored in a) H2O or b) ethanol
Spore samples are provided commercially, sometimes as ethanolic solution (40% ethanol in water).
Germination medium: + TLSH:
The germ count of the ordered spore solution is ascertained prior to the start of the experiment by means of plating out and counting and, if appropriate, the spore suspension is diluted. On the day of the experiment, a starting germ count (SGC) is again generated from the spore suspension used. By means of spore counting under the microscope in a Helber chamber, a comparison is drawn between spores which are actually present and the number of germinating spores. The starting spore count should be ca. 1 × 10^7 CFU/ml. With the help of the malachite green coloration, adequate sporulation of the spore suspension used was verified by means of light microscopy.
Samples are taken regularly over several weeks. The experimental solutions stand in the dark at room temperature during the action times.
In each case 50 ml per solution to be investigated are pipetted into a sterile Schott bottle, inoculated with 50 µl of spore suspension and incubated at room temperature. […]

Compound | germination of spores (spores) | killing of spores (spores) | effect against B. subtilis ATCC 6633 [1] | time after which the effect can be detected [1]
benzalkonium chloride | prevent the germination of spores | spores are not killed |  | 
CCCCCCCCCC[N+](C)(C)CCCCCCCCCC.[Cl-] [didecyldimethylammonium chloride] | prevent the germination of spores | do not kill them |  | 
CCCCCCCCN=c1ccn(CCCCCCCCCCn2ccc(=NCCCCCCCC)cc2)cc1.Cl.Cl [octenidine, N,N'-(1,10-decanediyldi-1[4H]-pyridinyl-4-ylidene)bis(1-octanamine) dihydrochloride] |  |  | effective | after just one day
